Test results as given in the supplement of paper PMC10627819.

Legend:
[1] = system: S. aureus DSM 20231; test: Bliss interaction score (quartile over a dose matrix) (fitness difference); higher = more antagonism (negative = synergy)
In short: (§1)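 Fitness was derived from optical density at entry into stationary phase, divided by the robust mean of the no-drug wells on the same plate. That reading was taken as OD595, and the ratio was capped at 1. Single-drug fitness was inferred from the combination data. The Bliss score, observed fitness minus the expected product of single-drug fitness, was summarised as quartiles over technical, biological and donor/recipient replicates.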

[2] = system: B. subtilis 168; test: as above
In short: as §1

[3] = system: S. aureus Newman; test: as above
In short: as §1

[4] = system: S. pneumoniae D39V; test: as above
In short: as §1

[5] = system: S. aureus DSM 20231; test: fitness (endpoint OD595 vs no drug) (fraction); higher = more growth
In short: (§2)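 Bacterial growth was followed in 384-well plates seeded at OD595 0.01, with 30 µl per well, or 55 µl for S. pneumoniae, in TSB, LB Lennox or CY at 37 °C. OD595 was read every 30 min for 14 h, and each reading had the first reading subtracted as background. Fitness is the background-corrected optical density at entry into stationary phase divided by the robust mean of the no-drug control wells. This ratio is capped at 1.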

[6] = system: B. subtilis 168; test: as above
In short: as §2

[7] = system: S. aureus Newman; test: as above
In short: as §2

[8] = system: S. pneumoniae D39V; test: as above
In short: as §2
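Wherever Bliss interaction score (quartile over a dose matrix) is given: first quartile when negative (synergy) and third quartile when positive (antagonism).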

CO/N=C(\C(=O)N[C@@H]1C(=O)N2C(C(=O)O)=C(COC(C)=O)CS[C@H]12)c1csc(N)n1 [Cefotaxime] + Cc1onc(-c2ccccc2)c1C(=O)N[C@@H]1C(=O)N2[C@@H]1SC(C)(C)[C@@H]2C(=O)O [Oxacillin]
Conditions	Bliss interaction score
[1]	0.0453
[2]	0.0466
[3]	0.0747
[4]	-0.116

Conditions	fitness
[5], first compound 0.039 µg/mL, partner 0.0156 µg/mL	0.696
[5], first compound 0.039 µg/mL, partner 0.0312 µg/mL	0.624
[5], first compound 0.039 µg/mL, partner 0.0625 µg/mL	0.632
[5], first compound 0.078 µg/mL, partner 0.0156 µg/mL	0.681
[5], first compound 0.078 µg/mL, partner 0.0312 µg/mL	0.655
[5], first compound 0.078 µg/mL, partner 0.0625 µg/mL	0.639
[5], first compound 0.156 µg/mL, partner 0.0156 µg/mL	0.599
[5], first compound 0.156 µg/mL, partner 0.0312 µg/mL	0.623
[5], first compound 0.156 µg/mL, partner 0.0625 µg/mL	0.655
[5], first compound 0.312 µg/mL, partner 0.0156 µg/mL	0.593
[5], first compound 0.312 µg/mL, partner 0.0312 µg/mL	0.594
[5], first compound 0.312 µg/mL, partner 0.0625 µg/mL	0.478
[6], first compound 0.5 µg/mL, partner 0.002 µg/mL	0.272
[6], first compound 0.5 µg/mL, partner 0.008 µg/mL	0.249
[6], first compound 1 µg/mL, partner 0.002 µg/mL	0.158
[6], first compound 1 µg/mL, partner 0.004 µg/mL	0.118
[6], first compound 1 µg/mL, partner 0.008 µg/mL	0.133
[6], first compound 2 µg/mL, partner 0.002 µg/mL	0.115
[6], first compound 2 µg/mL, partner 0.004 µg/mL	0.114
[6], first compound 2 µg/mL, partner 0.008 µg/mL	0.113
[7], first compound 0.078 µg/mL, partner 0.0156 µg/mL	0.745
[7], first compound 0.078 µg/mL, partner 0.0312 µg/mL	0.627
[7], first compound 0.078 µg/mL, partner 0.0625 µg/mL	0.531
[7], first compound 0.156 µg/mL, partner 0.0156 µg/mL	0.6
[7], first compound 0.156 µg/mL, partner 0.0312 µg/mL	0.555
[7], first compound 0.156 µg/mL, partner 0.0625 µg/mL	0.38
[7], first compound 0.625 µg/mL, partner 0.0156 µg/mL	0.0697
[7], first compound 0.625 µg/mL, partner 0.0312 µg/mL	0.0379
[7], first compound 0.625 µg/mL, partner 0.0625 µg/mL	0.0206
[7], first compound 1.25 µg/mL, partner 0.0156 µg/mL	0.0601
[7], first compound 1.25 µg/mL, partner 0.0312 µg/mL	0.0503
[7], first compound 1.25 µg/mL, partner 0.0625 µg/mL	0.0594
[7], first compound 2.5 µg/mL, partner 0.0156 µg/mL	0.0599
[7], first compound 2.5 µg/mL, partner 0.0312 µg/mL	0.0551
[7], first compound 2.5 µg/mL, partner 0.0625 µg/mL	0.0574
[8], first compound 0.0018 µg/mL, partner 0.005 µg/mL	0.999
[8], first compound 0.0018 µg/mL, partner 0.01 µg/mL	0.983
[8], first compound 0.0018 µg/mL, partner 0.02 µg/mL	0.937
[8], first compound 0.0018 µg/mL, partner 0.04 µg/mL	0.345
[8], first compound 0.0035 µg/mL, partner 0.005 µg/mL	≥ 1
[8], first compound 0.0035 µg/mL, partner 0.01 µg/mL	0.979
[8], first compound 0.0035 µg/mL, partner 0.02 µg/mL	0.874
[8], first compound 0.0035 µg/mL, partner 0.04 µg/mL	0.189
[8], first compound 0.007 µg/mL, partner 0.005 µg/mL	0.979
[8], first compound 0.007 µg/mL, partner 0.04 µg/mL	0.0612

one replicate
Conditions	fitness
[6], first compound 0.00775 µg/mL, partner 0.0078 µg/mL	0.82
[6], first compound 0.00775 µg/mL, partner 0.0155 µg/mL	0.789
[6], first compound 0.00775 µg/mL, partner 0.031 µg/mL	0.741
[6], first compound 0.0155 µg/mL, partner 0.0078 µg/mL	0.644
[6], first compound 0.0155 µg/mL, partner 0.0155 µg/mL	0.664
[6], first compound 0.0155 µg/mL, partner 0.031 µg/mL	0.548
[6], first compound 0.031 µg/mL, partner 0.0078 µg/mL	0.482
[6], first compound 0.031 µg/mL, partner 0.0155 µg/mL	0.537
[6], first compound 0.031 µg/mL, partner 0.031 µg/mL	0.395
[6], first compound 0.0625 µg/mL, partner 0.075 µg/mL	0.0512
[6], first compound 0.0625 µg/mL, partner 0.15 µg/mL	0.0585
[6], first compound 0.0625 µg/mL, partner 0.3 µg/mL	0.0527
[6], first compound 0.125 µg/mL, partner 0.075 µg/mL	0.0627
[6], first compound 0.125 µg/mL, partner 0.15 µg/mL	0.0636
[6], first compound 0.125 µg/mL, partner 0.3 µg/mL	0.0489
[6], first compound 0.25 µg/mL, partner 0.075 µg/mL	0.0575
[6], first compound 0.25 µg/mL, partner 0.15 µg/mL	0.0677
[6], first compound 0.25 µg/mL, partner 0.3 µg/mL	0.0596
[7], first compound 0.039 µg/mL, partner 0.0156 µg/mL	0.689
[7], first compound 0.039 µg/mL, partner 0.0312 µg/mL	0.662
[7], first compound 0.039 µg/mL, partner 0.0625 µg/mL	0.629
[7], first compound 0.312 µg/mL, partner 0.0156 µg/mL	0.317
[7], first compound 0.312 µg/mL, partner 0.0312 µg/mL	0.224
[7], first compound 0.312 µg/mL, partner 0.0625 µg/mL	0.181
